In US6770596B1, “Fused tricyclic compounds, process for their preparation, and herbicidal compositions containing them” (Ishihara Sangyo Kaisha Ltd., priority 2002, dated 2004):

Key:
Format in all cases: in vivo
[1] = system: redroot pigweed (Amaranthus retroflexus, AMR); assay: Pre-emerge test, redroot pigweed; conditions: 250 g ai/ha, 14 days after application, rating scale 0-100 (0 no damage, 100 complete death)
Outline: (§1)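 Pots (10 cm, sandy loam mix) were seeded one day ahead of spraying. Test materials, dissolved in acetone, went on at 8–1000 g ai/ha in a 187 l/ha spray volume. Damage was scored 14 days later from 0 (none) to 100 (total kill).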

[2] = system: johnsongrass (Sorghum halepense, SOH); assay: Post-emerge test, johnsongrass; conditions: 250 g ai/ha, 14 days after application, rating scale 0-100 (0 no damage, 100 complete death)
Outline: (§2)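 Seeds were planted in 10 cm pots of sandy loam soil mix 8-21 days ahead. Once the plants reached the 2-3 leaf stage, the compound was sprayed at 8-1000 g ai/ha (acetone, 187 l/ha, 0.25% v/v non-ionic surfactant). Damage was rated 0-100 after 14 days.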

[3] = system: redroot pigweed (Amaranthus retroflexus, AMR); assay: Post-emerge test, redroot pigweed; conditions: 250 g ai/ha, 14 days after application, rating scale 0-100 (0 no damage, 100 complete death)
Outline: as §2

[4] = system: velvetleaf (Abutilon theophrasti, ABT); assay: Post-emerge test, velvetleaf; conditions: 250 g ai/ha, 14 days after application, rating scale 0-100 (0 no damage, 100 complete death)
Outline: as §2

[5] = system: wheat (Triticum aestivum); assay: Pre-emerge test, crop damage wheat; conditions: pre-emerge, 250 g ai/ha, 14 days after application, rating scale 0-100 (0 no damage, 100 complete death)
Outline: (§3)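 Scores at 14 days after treatment use a 0–100 scale, where 0 is no damage and 100 is death of all plants. Treatments were acetone solutions sprayed at 8–1000 g ai/ha onto soil sown one day prior.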

[6] = system: lambsquarters (Chenopodium album, CHA); assay: Pre-emerge test, lambsquarters; conditions: 250 g ai/ha, 14 days after application, rating scale 0-100 (0 no damage, 100 complete death)
Outline: as §1

[7] = system: ivyleaf morningglory (Ipomoea hederacea, IPH); assay: Pre-emerge test, ivyleaf morningglory; conditions: 250 g ai/ha, 14 days after application, rating scale 0-100 (0 no damage, 100 complete death)
Outline: as §1

[8] = system: cocklebur (Xanthium strumariunt, XAS); assay: Pre-emerge test, cocklebur; conditions: 250 g ai/ha, 14 days after application, rating scale 0-100 (0 no damage, 100 complete death)
Outline: as §1

[9] = system: field corn (Zea mays L., var. Dekalb 535, CORN); assay: Pre-emerge test, crop damage field corn; conditions: pre-emerge, 250 g ai/ha, 14 days after application, rating scale 0-100 (0 no damage, 100 complete death)
Outline: as §3

[10] = system: large crabgrass (Digitaria sanguinalis, DIS); assay: Pre-emerge test, large crabgrass; conditions: 250 g ai/ha, 14 days after application, rating scale 0-100 (0 no damage, 100 complete death)
Outline: as §1

[11] = system: cocklebur (Xanthium strumariunt, XAS); assay: Post-emerge test, cocklebur; conditions: 250 g ai/ha, 14 days after application, rating scale 0-100 (0 no damage, 100 complete death)
Outline: as §2

[12] = system: velvetleaf (Abutilon theophrasti, ABT); assay: Pre-emerge test, velvetleaf; conditions: 250 g ai/ha, 14 days after application, rating scale 0-100 (0 no damage, 100 complete death)
Outline: as §1

[13] = system: johnsongrass (Sorghum halepense, SOH); assay: Pre-emerge test, johnsongrass; conditions: 250 g ai/ha, 14 days after application, rating scale 0-100 (0 no damage, 100 complete death)
Outline: as §1

[14] = system: large crabgrass (Digitaria sanguinalis, DIS); assay: Post-emerge test, large crabgrass; conditions: 250 g ai/ha, 14 days after application, rating scale 0-100 (0 no damage, 100 complete death)
Outline: as §2

[15] = system: soybean (Glycine max L., var. Pella 86, SOY); assay: Pre-emerge test, crop damage soybean; conditions: pre-emerge, 250 g ai/ha, 14 days after application, rating scale 0-100 (0 no damage, 100 complete death)
Outline: as §3

[16] = system: sicklepod (Cassia obtusifolia, CAO); assay: Pre-emerge test, sicklepod; conditions: 250 g ai/ha, 14 days after application, rating scale 0-100 (0 no damage, 100 complete death)
Outline: as §1

[17] = system: ivyleaf morningglory (Ipomoea hederacea, IPH); assay: Post-emerge test, ivyleaf morningglory; conditions: 250 g ai/ha, 14 days after application, rating scale 0-100 (0 no damage, 100 complete death)
Outline: as §2

[18] = system: green foxtail (Setaria viridis, SEV); assay: Post-emerge test, green foxtail; conditions: 250 g ai/ha, 14 days after application, rating scale 0-100 (0 no damage, 100 complete death)
Outline: as §2

[19] = system: common ragweed (Ambrosia artemisiifolia L., AML); assay: Pre-emerge test, common ragweed; conditions: 250 g ai/ha, 14 days after application, rating scale 0-100 (0 no damage, 100 complete death)
Outline: as §1

[20] = system: field corn (Zea mays L., var. Dekalb 535, CORN); assay: Post-emerge test, crop damage field corn; conditions: post-emerge, 250 g ai/ha, 14 days after application, rating scale 0-100 (0 no damage, 100 complete death)
Outline: as §2

[21] = system: soybean (Glycine max L., var. Pella 86, SOY); assay: Post-emerge test, crop damage soybean; conditions: post-emerge, 250 g ai/ha, 14 days after application, rating scale 0-100 (0 no damage, 100 complete death)
Outline: as §2

[22] = system: common ragweed (Ambrosia artemisiifolia L., AML); assay: Post-emerge test, common ragweed; conditions: 250 g ai/ha, 14 days after application, rating scale 0-100 (0 no damage, 100 complete death)
Outline: as §2

[23] = system: green foxtail (Setaria viridis, SEV); assay: Pre-emerge test, green foxtail; conditions: 250 g ai/ha, 14 days after application, rating scale 0-100 (0 no damage, 100 complete death)
Outline: as §1

[24] = system: upland rice (Oryza sp., var.Tebonnet, RICE); assay: Pre-emerge test, crop damage upland rice; conditions: pre-emerge, 250 g ai/ha, 14 days after application, rating scale 0-100 (0 no damage, 100 complete death)
Outline: as §3

[25] = system: barnyardgrass (Echinachloa crus-galli, ECC); assay: Post-emerge test, barnyardgrass; conditions: 250 g ai/ha, 14 days after application, rating scale 0-100 (0 no damage, 100 complete death)
Outline: as §2

[26] = system: lambsquarters (Chenopodium album, CHA); assay: Post-emerge test, lambsquarters; conditions: 250 g ai/ha, 14 days after application, rating scale 0-100 (0 no damage, 100 complete death)
Outline: as §2

[27] = system: sicklepod (Cassia obtusifolia, CAO); assay: Post-emerge test, sicklepod; conditions: 250 g ai/ha, 14 days after application, rating scale 0-100 (0 no damage, 100 complete death)
Outline: as §2

[28] = system: wheat (Triticum aestivum); assay: Post-emerge test, crop damage wheat; conditions: post-emerge, 250 g ai/ha, 14 days after application, rating scale 0-100 (0 no damage, 100 complete death)
Outline: as §2

[29] = system: upland rice (Oryza sp., var.Tebonnet, RICE); assay: Post-emerge test, crop damage upland rice; conditions: post-emerge, 250 g ai/ha, 14 days after application, rating scale 0-100 (0 no damage, 100 complete death)
Outline: as §2

[30] = system: barnyardgrass (Echinachloa crus-galli, ECC); assay: Pre-emerge test, barnyardgrass; conditions: 250 g ai/ha, 14 days after application, rating scale 0-100 (0 no damage, 100 complete death)
Outline: as §1

Row | SMILES | Pre-emerge Herbicidal Activity AMR (phytotoxicity rating) [1] | Post-emerge Herbicidal Activity SOH (phytotoxicity rating) [2] | Post-emerge Herbicidal Activity AMR (phytotoxicity rating) [3] | Post-emerge Herbicidal Activity ABT (phytotoxicity rating) [4] | Pre-emerge crop damage WHEAT (phytotoxicity rating) [5] | Pre-emerge Herbicidal Activity CHA (phytotoxicity rating) [6] | Pre-emerge Herbicidal Activity IPH (phytotoxicity rating) [7] | Pre-emerge Herbicidal Activity XAS (phytotoxicity rating) [8] | Pre-emerge crop damage CORN (phytotoxicity rating) [9] | Pre-emerge Herbicidal Activity DIS (phytotoxicity rating) [10] | Post-emerge Herbicidal Activity XAS (phytotoxicity rating) [11] | Pre-emerge Herbicidal Activity ABT (phytotoxicity rating) [12] | Pre-emerge Herbicidal Activity SOH (phytotoxicity rating) [13] | Post-emerge Herbicidal Activity DIS (phytotoxicity rating) [14] | Pre-emerge crop damage SOY (phytotoxicity rating) [15] | Pre-emerge Herbicidal Activity CAO (phytotoxicity rating) [16] | Post-emerge Herbicidal Activity IPH (phytotoxicity rating) [17] | Post-emerge Herbicidal Activity SEV (phytotoxicity rating) [18] | Pre-emerge Herbicidal Activity AML (phytotoxicity rating) [19] | Post-emerge crop damage CORN (phytotoxicity rating) [20] | also measured
1 | Cc1nn(-c2c(F)cc3c4c2NC(=O)CN4C(=O)CO3)c(=O)n1C(F)F [1-73] | 100 | 0 | 30 | 65 | 90 | 100 | 100 | 65 | 100 | 100 | 40 | 100 | 100 | 0 | 60 | 90 | 55 | 50 | 80 | 0 | Post-emerge crop damage SOY (phytotoxicity rating) [21]: 60; Post-emerge Herbicidal Activity AML (phytotoxicity rating) [22]: 50; Pre-emerge Herbicidal Activity SEV (phytotoxicity rating) [23]: 100; Pre-emerge crop damage RICE (phytotoxicity rating) [24]: 100; Post-emerge Herbicidal Activity ECC (phytotoxicity rating) [25]: 0; Post-emerge Herbicidal Activity CHA (phytotoxicity rating) [26]: 90; Post-emerge Herbicidal Activity CAO (phytotoxicity rating) [27]: 0; Post-emerge crop damage WHEAT (phytotoxicity rating) [28]: 0; Post-emerge crop damage RICE (phytotoxicity rating) [29]: 75; Pre-emerge Herbicidal Activity ECC (phytotoxicity rating) [30]: 100
2 | CC1C(=O)N(C)c2c(-c3nn(C)c(OC(F)F)c3Cl)c(F)cc3c2N1C(=O)CO3 (stereo not drawn) [1-62] | 65 | 0 | 99 | 80 | 45 | 100 | 60 | 25 | 10 | 50 | 65 | 90 | 90 | 30 | 10 | 50 | 75 | 60 | 35 | 0 | Post-emerge crop damage SOY (phytotoxicity rating) [21]: 0; Post-emerge Herbicidal Activity AML (phytotoxicity rating) [22]: 90; Pre-emerge Herbicidal Activity SEV (phytotoxicity rating) [23]: 100; Pre-emerge crop damage RICE (phytotoxicity rating) [24]: 50; Post-emerge Herbicidal Activity ECC (phytotoxicity rating) [25]: 30; Post-emerge Herbicidal Activity CHA (phytotoxicity rating) [26]: 100; Post-emerge Herbicidal Activity CAO (phytotoxicity rating) [27]: 35; Post-emerge crop damage WHEAT (phytotoxicity rating) [28]: 50; Post-emerge crop damage RICE (phytotoxicity rating) [29]: 70; Pre-emerge Herbicidal Activity ECC (phytotoxicity rating) [30]: 90
3 | CC1C(=O)Nc2c(-c3nn(C)c(C(F)(F)F)c3Cl)c(F)cc3c2N1C(=O)C(C)(C)O3 (stereo not drawn) [1-54] | 100 | 0 | 80 | 100 | 0 | 100 | 75 | 90 | 55 | 95 | 65 | 100 | 99 | 0 | 55 | 99 | 60 | 65 | 95 | 0 | Post-emerge crop damage SOY (phytotoxicity rating) [21]: 45; Post-emerge Herbicidal Activity AML (phytotoxicity rating) [22]: 80; Pre-emerge Herbicidal Activity SEV (phytotoxicity rating) [23]: 98; Pre-emerge crop damage RICE (phytotoxicity rating) [24]: 0; Post-emerge Herbicidal Activity ECC (phytotoxicity rating) [25]: 0; Post-emerge Herbicidal Activity CHA (phytotoxicity rating) [26]: 99; Post-emerge Herbicidal Activity CAO (phytotoxicity rating) [27]: 40; Post-emerge crop damage WHEAT (phytotoxicity rating) [28]: 0; Post-emerge crop damage RICE (phytotoxicity rating) [29]: 0; Pre-emerge Herbicidal Activity ECC (phytotoxicity rating) [30]: 85
4 | CC(C)C1C(=O)Nc2c(N3C(=O)C4=C(CCCC4)C3=O)c(F)cc3c2N1C(=O)CO3 (stereo not drawn) [1-78] | 20 | 0 | 60 | 0 | 0 | 70 | 25 | 0 | 0 | 0 | 80 | 10 | 0 | 0 | 0 | 15 | 75 | 0 | 0 | 0 | Post-emerge crop damage SOY (phytotoxicity rating) [21]: 10; Post-emerge Herbicidal Activity AML (phytotoxicity rating) [22]: 70; Pre-emerge Herbicidal Activity SEV (phytotoxicity rating) [23]: 0; Pre-emerge crop damage RICE (phytotoxicity rating) [24]: 0; Post-emerge Herbicidal Activity ECC (phytotoxicity rating) [25]: 0; Post-emerge Herbicidal Activity CHA (phytotoxicity rating) [26]: 99; Post-emerge Herbicidal Activity CAO (phytotoxicity rating) [27]: 0; Post-emerge crop damage WHEAT (phytotoxicity rating) [28]: 50; Post-emerge crop damage RICE (phytotoxicity rating) [29]: 60; Pre-emerge Herbicidal Activity ECC (phytotoxicity rating) [30]: 0
